From patent publication US20240034717A1, “NOVEL POTASSIUM CHANNEL INHIBITORS” (Saniona A/S, priority 2020, published 2024)
Where “and” joins values, the source holds several entries; their conditions need not be identical. Equal entries are not always repeated.

Columns and labels:
physchem = settings: for solubility at 16 h: 25 °C, pH 7.4, aqueous buffer, kinetic from dmso stock
Experimental: 2.79 g of K2HPO4 and 0.54 g of KH2PO4 was dissolved in 390 mL of milliQ water. pH was adjusted to 7.4 using 1N HCl/1N NaOH and final volume was made up to 400 mL with milliQ water.
In case of compounds not soluble/less quantity submission, 40/20/10Mm stocks were prepared and used for experiment.
Assay Procedure: • 245 μL of 50 mM phosphate buffer then 5 μL each of test compound/standards (80 mM) in their respective positions was added to the 1.1 mL 96 well plate. • DMSO Controls was prepared by taking 245 μL of 100% DMSO then 5 μL each of test compound in their respective positions and added to the 1.1 mL 96 well plate • Plate was incubated with mixing at 1600 RPM for 16 hours at room temperature (˜23 MC). • After incubation, samples were filtered using Millipore plates. • Filtrates were analysed by HPLC-UV.
Solubility is calculated using the following formula: […]

[1] = target: erythrocyte KCa3.1 channels (Homo sapiens (Human), UniProt O15554); assay: Erythrocyte KCa3.1 assay; assay type: cell-based; settings: human erythrocytes, A23187-activated KCa3.1; read-out: RBC K (in vitro) Human IC50 (μM) Potency category
Experimental: Human blood was drawn from healthy human volunteers in a standard heparinized blood sampling vial (Vacutainer, Li/heparin, ED Bioscience, Plymouth, UK). The erythrocytes were packed by centrifugation, and the plasma and buffy coat were removed by aspiration. Erythrocytes were washed three times in the experimental salt solution and then stored at 0° C. until use. Blood samples from NMRI mice or from Wistar rats were treated similarly. The methodological principle is outlined in Macey et al. (1978) and further described in Strøbaek et al. (2013). Activation of the erythrocyte KCa3.1 channels were obtained by addition of the Ca^2+ ionophore A23187, which causes synchronized hyperpolarization, which is reported as a CCCP-mediated shift in the unbuffered extracellular pH of the erythrocyte suspension. Standard procedure: 3 mL unbuffered experimental salt solution (in mM: 2 KCl, 154 NaCl, 0.05 CaCl2) was heated to 37° C. with stirring. Packed erythrocytes were added (50 μL, final cytocrit 1.5%), and the extracellular pH (pHo) followed with a glass/calomel (pHG200-8/REF200, Radiometer, Denmark) electrode pair. CCCP (3 μL, final concentration 20 μM) was added followed by varying concentrations of test compounds (DMSO concentration constant). After pH stabilization at ˜7.2, A23187 (3 μL, final concentration 0.33 μM) was added to initiate the experiment. After the peak hyperpolarization was attained, the intracellular pH (pHi constant during the experiment) was found by haemolysing the erythrocytes via addition of 100 μL of Triton-X100.
The erythrocyte membrane potential, Vm, was calculated according to: […]
and the fractional remaining Ca^2+-activated K^+-conductance at the concentration C of blocker, fGK(C), was calculated from
where the K^+ equilibrium potential EK=−107 mV, the Cl^− equilibrium potential ECl=−12 mV and the Vm(0) and Vm(C) are the peak hyperpolarizations in the control and in the presence of a concentration of C of blocker respectively.
IC50 values for compounds were calculated from a plot of fGK(C) versus C by a fit to the Hill equation, using a custom program written in the IGOR-Pro software (WaveMetrics, Lake Oswego, OR, USA). All IC50-values are reported in μM.

[2] = 50 mM potassium phosphate buffer pH 7.40, 16 hr at ~25° C., incubation concentration 1600 μM

solubility at 16 h (physchem)	IC50 [1]	Measured Solubility in pH 7.4 phosphate buffer (mg/ml) (physchem; [2])	Measured Solubility in pH 7.4 phosphate buffer (μM) (physchem; [2])	Measured Solubility in pH 7.4 phosphate buffer (μM) (physchem; 16 h, pH 7.4)	SMILES
616 µg/mL and 1500 µM	< 0.3 µM	–	–	–	CCOC(=O)N(C[C@H]1CCCN1)C1(c2ccc(F)c(C(F)(F)F)c2)CC1 [Ethyl (R)-(1-(4-fluoro-3-(trifluoromethyl)phenyl)cyclopropyl)(pyrrolidin-2-ylmethyl)carbamate]
598 µg/mL and 1700 µM	< 0.3 µM	–	–	–	COC(=O)N(CC1CCN1C)C1(c2ccc(F)c(C(F)(F)F)c2)CC1 (centres unmarked) [Methyl (1-(4-fluoro-3-(trifluoromethyl)phenyl)cyclopropyl)((1-methylazetidin-2-yl)methyl)carbamate]
591 µg/mL and 1700 µM	< 1 µM	–	–	–	COC(=O)N(C[C@@H]1CCN1)C1(c2ccc(F)c(C(F)(F)F)c2)CC1 [Methyl (S)-(azetidin-2-ylmethyl)(1-(4-fluoro-3-(trifluoromethyl)phenyl)-cyclopropyl)carbamate]
615 µg/mL and 1600 µM	< 0.3 µM	–	–	–	CC(C)OC(=O)N(C[C@@H]1CCCN1)C1(c2ccc(F)c(C(F)(F)F)c2)CC1 [Isopropyl (S)-(1-(4-fluoro-3-(trifluoromethyl)phenyl)cyclopropyl)(pyrrolidin-2-ylmethyl)carbamate]
–	< 1 µM	0.6118 mg/ml	1500 μM	–	COC(=O)N(C[C@H]1COCCN1)C1(c2ccc(F)c(C(F)(F)F)c2)CC1 [Methyl (S)-(1-(4-fluoro-3-(trifluoromethyl)phenyl)cyclopropyl)(morpholin-3-ylmethyl) carbamate]
687 µg/mL and 1500 µM	< 0.3 µM	–	–	–	COC(=O)N(CC1CCN1)C1(c2ccc(F)c(C(F)(F)F)c2)CC1 (centres unmarked) [Methyl (azetidin-2-ylmethyl)(1-(4-fluoro-3-(trifluoromethyl)phenyl)cyclopropyl)carbamate]
594 µg/mL and 1400 µM	< 0.3 µM	–	–	–	CCOC(=O)N(C[C@@H]1CCCN1)C1(c2ccc(F)c(C(F)(F)F)c2)CC1 [Ethyl (S)-(1-(4-fluoro-3-(trifluoromethyl)phenyl)cyclopropyl)(pyrrolidin-2-ylmethyl)carbamate]
558 µg/mL and 1500 µM	< 0.3 µM	–	–	–	COC(=O)N(CC1CCN1)C1(c2ccc(F)c(OC(F)(F)F)c2)CC1 (centres unmarked) [Methyl (azetidin-2-ylmethyl)(1-(4-fluoro-3-(trifluoromethoxy)phenyl)cyclopropyl)carbamate]

The next lines start with the compound.

SMILES	solubility at 16 h (physchem)	IC50 [1]	Measured Solubility in pH 7.4 phosphate buffer (mg/ml) (physchem; [2])	Measured Solubility in pH 7.4 phosphate buffer (μM) (physchem; [2])	Measured Solubility in pH 7.4 phosphate buffer (μM) (physchem; 16 h, pH 7.4)
COC(=O)N(C[C@]1(C)CCCN1)C1(c2ccc(F)c(C(F)(F)F)c2)CC1 [Methyl (S)-(1-(4-fluoro-3-(trifluoromethyl)phenyl)cyclopropyl)((2-methylpyrrolidin-2-yl)methyl)carbamate]	575 µg/mL and 1400 µM	< 0.3 µM	–	–	–
CC(C)(N)CNC1(c2ccc(F)c(C(F)(F)F)c2)CC1 [N1-(1-(4-fluoro-3-(trifluoromethyl)phenyl)cyclopropyl)-2-methylpropane-1,2-diamine]	482 µg/mL and 1700 µM	< 0.3 µM	–	–	–
COC(=O)N(CC(C)(C)N)C1(c2ccc(F)c(OC(F)(F)F)c2)CC1 [Methyl (2-amino-2-methylpropyl)(1-(4-fluoro-3-(trifluoromethoxy)phenyl)cyclopropyl)carbamate]	584 µg/mL and 1500 µM	< 0.3 µM	–	–	–
CCOC(=O)N(C[C@@H]1CCCN1C)C1(c2ccc(F)c(C(F)(F)F)c2)CC1 [Ethyl (S)-(1-(4-fluoro-3-(trifluoromethyl)phenyl)cyclopropyl)((1-methylpyrrolidin-2-yl)methyl) carbamate]	–	< 0.3 µM	0.5679 mg/ml	1500 μM	–
COC(=O)N(C[C@@]1(C)CCCN1)C1(c2ccc(F)c(C(F)(F)F)c2)CC1 [Methyl (R)-(1-(4-fluoro-3-(trifluoromethyl)phenyl)cyclopropyl)((2-methylpyrrolidin-2-yl)methyl)carbamate]	585 µg/mL and 1400 µM	< 0.3 µM	–	–	–
COC(=O)N(CC(C)(C)N)C1(c2cc(C(F)(F)F)c(F)cn2)CC1 [Methyl (2-amino-2-methylpropyl)(1-(5-fluoro-4-(trifluoromethyl)pyridin-2-yl)cyclopropyl) carbamate]	–	< 1 µM	0.5636 mg/ml	1500 μM	–
N[C@H]1CCC[C@@H]1NC1(c2ccc(F)c(C(F)(F)F)c2)CC1 [(1S,2S)-N1-(1-(4-fluoro-3-(trifluoromethyl)phenyl)cyclopropyl)-cyclopentane-1,2-diamine]	239 µg/mL and 700 µM	< 1 µM	–	–	–
COC(=O)N(CC(C)(C)N)C1(c2cc(Cl)cc(Cl)c2)CC1 [Methyl (2-amino-2-methylpropyl)(1-(3,5-dichlorophenyl)cyclopropyl)carbamate]	578 µg/mL and 1600 µM	< 0.3 µM	–	–	–
COC(=O)N(C[C@H]1CCCN1)C1(c2ccc(F)c(OC(F)(F)F)c2)CC1 [Methyl (R)-(1-(4-fluoro-3-(trifluoromethoxy)phenyl)cyclopropyl)(pyrrolidin-2-ylmethyl)carbamate]	677 µg/mL and 1600 µM	< 1 µM	–	–	–
NC1(CNC2(c3ccc(F)c(C(F)(F)F)c3)CC2)CC1 [N-((1-aminocyclopropyl)methyl)-1-(4-fluoro-3-(trifluoromethyl)phenyl)cyclopropan-1-amine]	464 µg/mL and 1400 µM	< 0.3 µM	–	–	–
COC(=O)N(CC(C)(C)N)C1(c2cccc(Br)c2)CC1 [Methyl (2-amino-2-methylpropyl)(1-(3-bromophenyl)cyclopropyl)carbamate]	376 µg/mL and 800 µM	< 1 µM	–	–	–
Fc1ccc(C2(N(CC3CC3)C3CNC3)CC2)cc1C(F)(F)F [N-(cyclopropylmethyl)-N-(1-(4-fluoro-3-(trifluoromethyl)phenyl)cyclopropyl)azetidin-3-amine]	679 µg/mL and 1500 µM	< 0.3 µM	–	–	–
CC(C)(N)CN(C(=O)C1CC1)C1(c2ccc(F)c(C(F)(F)F)c2)CC1 [N-(2-amino-2-methylpropyl)-N-(1-(4-fluoro-3-(trifluoromethyl)phenyl)cyclopropyl)cyclopropanecarboxamide]	582 µg/mL and 1200 µM	< 1 µM	–	–	–
COC(=O)N(C[C@H]1COCCN1C)C1(c2ccc(F)c(C(F)(F)F)c2)CC1 [Methyl (S)-(1-(4-fluoro-3-(trifluoromethyl)phenyl)cyclopropyl)((4-methylmorpholin-3-yl)methyl)carbamate]	600 µg/mL and 1500 µM	< 0.3 µM	–	–	–
CC(C)(N)CN(C1(c2ccc(F)c(C(F)(F)F)c2)CC1)S(C)(=O)=O [N-(2-amino-2-methylpropyl)-N-(1-(4-fluoro-3-(trifluoromethyl)phenyl)cyclopropyl)methanesulfonamide]	565 µg/mL and 1500 µM	< 0.3 µM	–	–	–
COC(=O)N(CCN(C)C)C1(c2ccc(F)c(C(F)(F)F)c2)CC1 [Methyl N-(2-(dimethylamino)ethyl)-N-(1-(4-fluoro-3-(trifluoromethyl)phenyl)cyclopropyl) carbamate]	–	< 1 µM	0.5409 mg/ml	1600 μM	–
CC(C)(O)CN(CC1CCN1)C1(c2ccc(F)c(C(F)(F)F)c2)CC1 (centres unmarked) [1-((azetidin-2-ylmethyl)(1-(4-fluoro-3-(trifluoromethyl)phenyl)cyclopropyl)amino)-2-methyl propan-2-ol]	755 µg/mL and 1600 µM	< 0.3 µM	–	–	–
O=C1CSc2ccccc2N1Cc1cccc(C(F)(F)F)c1 [NS6180, 4-[[3-(Trifluoromethyl)-phenyl]methyl]-2H-1,4-benzothiazin-3(4H)-one, reference compound]	2.8 µM and 0.9 µg/mL	–	–	–	2.8 μM
